Experimental data from BindingDB's records for doi:10.1021/jm030146j (Merck Research Laboratories, 2003).

Target: Integrin alpha-IIb/beta-3 (Homo sapiens, UniProt P08514+P05106)
Assay: Inhibition of human alphaIIb-beta3 integrin in platelet aggregation assay

Sequence of Integrin alpha-IIb/beta-3 (P05106 27-788 limits assumed): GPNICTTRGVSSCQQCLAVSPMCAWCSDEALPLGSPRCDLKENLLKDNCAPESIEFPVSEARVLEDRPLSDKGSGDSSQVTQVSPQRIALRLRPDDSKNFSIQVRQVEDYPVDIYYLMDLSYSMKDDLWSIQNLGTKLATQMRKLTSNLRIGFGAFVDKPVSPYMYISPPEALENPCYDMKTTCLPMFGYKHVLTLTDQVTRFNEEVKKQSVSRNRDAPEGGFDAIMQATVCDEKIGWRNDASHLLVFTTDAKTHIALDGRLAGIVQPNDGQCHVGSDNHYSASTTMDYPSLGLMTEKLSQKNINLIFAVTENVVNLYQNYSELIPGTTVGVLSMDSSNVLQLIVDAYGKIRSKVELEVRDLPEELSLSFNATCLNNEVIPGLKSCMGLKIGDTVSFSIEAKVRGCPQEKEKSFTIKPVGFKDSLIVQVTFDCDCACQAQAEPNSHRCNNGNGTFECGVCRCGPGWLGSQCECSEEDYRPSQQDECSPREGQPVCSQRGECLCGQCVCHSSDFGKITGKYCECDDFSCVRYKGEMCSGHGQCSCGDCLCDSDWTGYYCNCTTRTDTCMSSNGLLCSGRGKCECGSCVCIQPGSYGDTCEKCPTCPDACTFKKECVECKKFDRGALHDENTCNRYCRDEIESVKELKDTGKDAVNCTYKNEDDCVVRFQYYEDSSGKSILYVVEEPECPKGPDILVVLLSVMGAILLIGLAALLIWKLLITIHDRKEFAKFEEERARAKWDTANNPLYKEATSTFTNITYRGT
Sequence of Integrin alpha-IIb/beta-3 (P08514 32-887 limits assumed): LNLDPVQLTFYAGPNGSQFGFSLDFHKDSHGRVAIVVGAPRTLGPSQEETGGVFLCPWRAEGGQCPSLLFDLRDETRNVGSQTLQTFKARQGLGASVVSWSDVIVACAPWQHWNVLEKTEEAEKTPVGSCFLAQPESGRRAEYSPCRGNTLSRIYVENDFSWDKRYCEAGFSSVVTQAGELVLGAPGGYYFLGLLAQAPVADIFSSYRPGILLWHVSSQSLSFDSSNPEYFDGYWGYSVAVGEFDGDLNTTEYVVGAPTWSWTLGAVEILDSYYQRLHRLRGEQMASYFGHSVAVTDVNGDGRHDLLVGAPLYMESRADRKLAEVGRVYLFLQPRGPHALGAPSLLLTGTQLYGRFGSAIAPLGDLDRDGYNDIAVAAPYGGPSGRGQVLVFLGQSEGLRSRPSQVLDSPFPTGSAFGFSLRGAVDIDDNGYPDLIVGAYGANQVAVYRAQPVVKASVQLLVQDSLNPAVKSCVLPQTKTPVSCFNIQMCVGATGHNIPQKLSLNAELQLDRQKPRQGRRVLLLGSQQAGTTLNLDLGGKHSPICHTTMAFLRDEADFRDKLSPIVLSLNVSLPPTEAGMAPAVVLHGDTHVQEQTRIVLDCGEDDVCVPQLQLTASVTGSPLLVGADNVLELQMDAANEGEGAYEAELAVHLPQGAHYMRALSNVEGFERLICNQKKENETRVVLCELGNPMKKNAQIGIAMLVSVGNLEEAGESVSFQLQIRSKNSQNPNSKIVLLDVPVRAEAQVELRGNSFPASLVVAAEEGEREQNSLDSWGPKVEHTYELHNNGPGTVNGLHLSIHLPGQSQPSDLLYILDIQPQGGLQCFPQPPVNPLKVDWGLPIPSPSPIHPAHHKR
Sequence of Integrin alpha-IIb/beta-3 (P08514 891-1039 limits assumed): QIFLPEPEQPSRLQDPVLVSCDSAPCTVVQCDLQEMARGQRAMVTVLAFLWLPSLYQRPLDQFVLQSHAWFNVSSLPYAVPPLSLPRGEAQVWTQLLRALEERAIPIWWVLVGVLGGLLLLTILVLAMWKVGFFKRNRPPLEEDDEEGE

Structure (SMILES) | IC50 [nM]
O=C(O)C[C@H](NC(=O)CN1CC[C@H](CCc2ccc3c(n2)NCCC3)C1=O)c1cccnc1 [3-(2-{(S)-2-Oxo-3-[2-(5,6,7,8-tetrahydro-[1,8]naphthyridin-2-yl)-ethyl]-pyrrolidin-1-yl}-acetylamino)-3-(S)-pyridin-3-yl-propionic acid] | > 10000
O=C(O)CC(NC(=O)CCCCc1ccc2c(n1)NCCC2)c1cncnc1 (stereo not given) [3-Pyrimidin-5-yl-3-(5-5,6,7,8-tetrahydro-[1,8]naphthyridin-2-yl-pentanoylamino)-propionic acid] | > 10000
CNc1cccc(CCOc2ccc3c(c2)CN(CC(F)(F)F)C(=O)[C@H](CC(=O)O)C3)n1 [[(S)-8-[2-(6-Methylamino-pyridin-2-yl)-ethoxy]-3-oxo-2-(2,2,2-trifluoro-ethyl)-2,3,4,5-tetrahydro-1H-benzo[c]azepin-4-yl]-acetic acid] | > 10000

The next molecules have a lower IC50 than those just listed; values first:

IC50 [nM] | Structure (SMILES)
16 | O=C(NC[C@H](NS(=O)(=O)c1ccccc1)C(=O)O)c1ccc(N2CCNCC2)cc1 [2-((S)-Benzenesulfonylamino)-3-(4-piperazin-1-yl-benzoylamino)-propionic acid]
157 | CC1(C)[C@@H]2CC[C@@]1(CS(=O)(=O)N[C@@H](CNC(=O)c1ccc(CCc3ccc4c(n3)NCCC4)cc1)C(=O)O)C(=O)C2 [2-((S)-(1R,7S)-7,7-Dimethyl-2-oxo-bicyclo[2.2.1]hept-1-ylmethanesulfonylamino)-3-{4-[2-(5,6,7,8-tetrahydro-[1,8]naphthyridin-2-yl)-ethyl]-benzoylamino}-propionic acid]
